Assay results from ChEMBL document CHEMBL2321716, “Exploring a new frontier in cancer treatment: targeting the ubiquitin and ubiquitin-like activating enzymes” (J Med Chem, 2013).
Each block holds one molecule with its values, some of them ahead of it.

What was measured:
MCF7 = experiment: Cytotoxicity against human MCF7 cells after 48 hrs by WST8 assay; format: functional, cell-based; details: MCF7, 48 h
[1] = Inhibition of recombinant yeast UAE-catalyzed UAE-Ub intermediate formation after 15 mins by densitometric analysis; parameters: species or system Saccharomyces cerevisiae
[2] = Inhibition of UAE-catalyzed UAE-Ub thioester intermediate formation in human RPE cells by immunoblotting analysis; format: cell-based
[3] = target: T1, SUMO-activating enzyme subunit 1 (Homo sapiens, UniProt Q9UBE0); experiment: Inhibition of recombinant SAE1(unknown origin)-mediated SUMOylation of RanGAP1-C2
T1 sequence (Q9UBE0 whole entry): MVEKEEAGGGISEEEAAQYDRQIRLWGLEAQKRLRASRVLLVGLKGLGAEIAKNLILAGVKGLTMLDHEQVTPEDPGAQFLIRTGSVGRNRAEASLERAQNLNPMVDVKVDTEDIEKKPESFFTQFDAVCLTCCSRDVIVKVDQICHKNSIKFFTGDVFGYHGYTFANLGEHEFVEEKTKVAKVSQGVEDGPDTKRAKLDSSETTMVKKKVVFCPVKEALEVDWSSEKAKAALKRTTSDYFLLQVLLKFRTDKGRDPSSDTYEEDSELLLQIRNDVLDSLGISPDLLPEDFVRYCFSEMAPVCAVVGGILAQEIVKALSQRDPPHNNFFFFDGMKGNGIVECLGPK

[4] = Inhibition of FLAG-tagged human recombinant UAE-catalyzed UAE-Ub thioester intermediate formation immunoblotting analysis
[5] = target: T1, SUMO-activating enzyme subunit 1; experiment: Inhibition of recombinant His-tagged SAE1(unknown origin)-mediated SUMOylation of RanGAP1-C2 by immunoblotting analysis
[6] = Inhibition of N-terminal GST-tagged human UAE-catalyzed UAE-Ub thioester intermediate formation expressed in HI5 insect cells after 15 mins by SDS-PAGE analysis
[7] = target: T1, SUMO-activating enzyme subunit 1; experiment: Inhibition of human SAE by fluorescence assay

SMILES: CCOC(=O)N1CCN(/[N+]([O-])=N/Oc2ccc([N+](=O)[O-])cc2[N+](=O)[O-])CC1
- IC50 [2]: 2 µM

SMILES: C[C@@H](CC(=O)NC(=O)c1coc(/C=C/CCCCCCCCC(=O)O)cc1=O)C(=O)O [HIMEIC ACID A]
- IC50 [4]: 50 µM

SMILES: C[C@@H]1O[C@@H](O[C@H]2[C@H](O)C[C@H](c3ccc4c(c3O)C(=O)C3=C(C4=O)[C@@]4(O[C@H]5CC[C@H](O)[C@H](C)O5)C(=O)C[C@](C)(O)C[C@@]4(O)C=C3)O[C@@H]2C)CC[C@@H]1O[C@H]1C[C@@H](O)[C@H](O)[C@@H](C)O1 [KERRIAMYCIN B]
- IC50 [5]: 11.7 µM

SMILES: CCCCCCCC(=O)SCC/C=C/[C@@H]1CC(=O)NCc2nc(cs2)C2=N[C@@](C)(CS2)C(=O)N[C@@H](C(C)C)C(=O)O1 [LARGAZOLE]
- IC50 [6]: 29 µM
- IC50 [7]: 450 µM

Now from value to molecule, other results behind:

- IC50 [1]: 90 µM
SMILES: CCCCCCCC/C=C/[C@]12C(=O)[C@H]3O[C@H]3[C@H](O)[C@H]1[C@H]1C(=C[C@@H]2CCCCCCCC)C(=O)[C@H]2O[C@H]2[C@@H]1O
- IC50 (MCF7): 3.6 µM

- IC50 [3]: 2.2 µM
SMILES: CCCCCCCCCCCCCCCc1cccc(O)c1C(=O)O [ANACARDIC ACID]

- IC50 [3]: 3 µM
SMILES: CCCCCC/C=C\CCCCCCCc1cccc(O)c1C(=O)O [GINGKOLIC ACID]
